The results in this text go back to PubChem BioAssay (NCI).

“And” between values parts separate entries of the source, which are not always exact repeats. Equal values may be shown once.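 All cell lines were grown in 96-well plates and treated with compound for 48 hours. Here, GI50 denotes the concentration required for 50% inhibition of growth. TGI: total growth inhibition.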 Some results are limits rather than exact numbers.

Holding throughout (assay): inhibition of tumour cell growth, NCI panel, 48 h
Experiment [1] deals with BT-549 breast.
For experiment [2], the system named is DU-145 prostate.
The subject of experiment [3] is HS 578T breast.
Experiment [4] has as its system MDA-MB-231 breast.
Experiment [5] deals with PC-3 prostate.
The subject of experiment [6] is T-47D breast.

Regarding `COc1cc2c(c(OC)c1O)C(=O)C(OC)C(c1ccc(O)c(O)c1)O2` (stereo not drawn), the GI50 was 0.362 µM in experiment [1]; 0.374 µM in experiment [2]; 0.0889 µM in experiment [3]; 0.554 µM in experiment [4]; 0.599 µM in experiment [5]; 0.513 µM in experiment [6]. Moreover, the TGI is over 100 µM in experiment [1]; over 100 µM in experiment [2]; 46.1 µM in experiment [3]; over 100 µM in experiment [4]; over 50.6 µM in experiment [5]; 92.4 µM in experiment [6].

On to `O=C(Nc1ccc(F)cc1F)c1cc(I)ccc1O`, for which the GI50 in experiment [1] is 1.99 µM; in experiment [2], 3.87 µM; in experiment [3] it was 2.37 µM; in experiment [4], 1.87 µM; in experiment [5] it was 2.53 µM; in experiment [6] it was 1.99 µM. For the same compound, the TGI in experiment [1] is 5.16 µM; in experiment [2], over 100 µM; in experiment [3], 8.07 µM; in experiment [4], 5.8 µM; in experiment [5], 8.73 µM; in experiment [6], 6.8 µM.

As for `O=C(CN1CCN(c2cc3c(cc2F)c(=O)c(C(=O)N/N=C/c2ccccc2O)cn3C2CC2)CC1)N/N=C\c1ccccc1O`, the GI50 is 1.51 µM in experiment [1]; 0.716 µM in experiment [2]; 8.57 µM in experiment [3]; 0.533 µM in experiment [4]; 0.531 µM in experiment [5]; 0.796 µM in experiment [6]. Besides, the TGI is over 100 µM in experiment [1]; over 100 µM in experiment [2]; over 100 µM in experiment [3]; over 69.3 µM in experiment [4]; over 100 µM in experiment [5]; over 100 µM in experiment [6].

Consider `COc1cc(/C=C/c2cc(/C=C/c3ccc(O)c(OC)c3)n(C(=O)Nc3ccc(F)cc3)n2)ccc1O`, for which the GI50 in experiment [1] was 1.18 µM; in experiment [2], 1.53 µM; in experiment [3] it was 0.689 µM; in experiment [4], 2.16 µM; in experiment [5], 0.957 µM; in experiment [6] it was 2.4 µM. Moreover, the TGI in experiment [1] was over 19.7 µM; in experiment [2], 11.4 µM; in experiment [3], 6.11 µM; in experiment [4], over 65.3 µM; in experiment [5], 12.8 µM; in experiment [6], 9.99 µM.

As for `O=C1c2cccnc2-c2nc(-c3ccccc3[N+](=O)[O-])cc3c2c1nc1ccccc13`, the GI50 in experiment [1] is 16.7 µM; in experiment [2], 14.9 µM; in experiment [3], 31.2 µM; in experiment [4], 3.89 µM; in experiment [5] it was 19.5 µM; in experiment [6], 5.3 µM. For the same compound, the TGI in experiment [1] was 73.2 µM; in experiment [2], 33.3 µM; in experiment [3], 86.4 µM; in experiment [4], over 100 µM; in experiment [5], 69.1 µM; in experiment [6], over 100 µM.

As for `Cc1cc(=O)[nH]c2cc3oc4ccccc4c3cc12`, the TGI in experiment [1], in experiment [2], in experiment [3], in experiment [4], in experiment [5] and in experiment [6] was over 100 µM each time.

In the case of `CC1=C(C(=O)Nc2ccc(F)c(Cl)c2)C(c2ccc(Cl)cc2)NC(=O)N1` (stereo not drawn), the GI50 is 14.6 µM in experiment [1]; 15.6 µM in experiment [2]; 21.5 µM in experiment [3]; 13.7 µM in experiment [4]; 15.1 µM in experiment [5]; over 100 µM in experiment [6]. Moreover, the TGI in experiment [1] is 32.6 µM; in experiment [2], 37 µM; in experiment [3] it was 51.1 µM; in experiment [4] it was 27.1 µM; in experiment [5], 31.9 µM; in experiment [6], over 100 µM.

Regarding `O=C1NNC(=O)c2ccccc2SSc2ccccc2C(=O)NNC(=O)c2ccccc2SSc2ccccc21`, the GI50 in experiment [1] was 14.1 µM; in experiment [2] it was 5 µM; in experiment [3], over 100 µM; in experiment [4], 11.4 µM; in experiment [5] it was 24.7 µM; in experiment [6], 2.34 µM. Further, the TGI was 50 µM and > 100 µM in experiment [1]; 50 µM and 33.6 µM in experiment [2]; over 100 µM in experiment [3]; 50 µM and > 100 µM in experiment [4]; 50 µM and > 100 µM in experiment [5]; 50 µM and 8.18 µM in experiment [6].

As to `CC1=C(C#N)C23C(=O)c4ccccc4C(O)=C2C(=O)C=CC3(O)N1Cc1ccccc1` (stereo not drawn), the GI50 was 36.2 µM in experiment [1]; 35.1 µM in experiment [2]; 26.2 µM in experiment [3]; 44.4 µM in experiment [4]; 47 µM in experiment [5]; 25.8 µM in experiment [6]. Moreover, the TGI in experiment [1] was over 100 µM; in experiment [2] it was over 100 µM; in experiment [3], over 100 µM; in experiment [4], over 100 µM; in experiment [5], over 100 µM; in experiment [6], 71.6 µM.

With `COc1ccc2c(c1)C(=O)/C(=C/c1ccc(OCC(=O)Nc3nccs3)cc1)O2`, the GI50 was 3.86 µM in experiment [1]; 0.504 µM in experiment [2]; 9.23 µM in experiment [3]; 0.748 µM in experiment [4]; 0.264 µM in experiment [5]; 7.05 µM in experiment [6]. Also, the TGI was 15.3 µM in experiment [1]; 5.73 µM in experiment [2]; over 63.8 µM in experiment [3]; 5.78 µM in experiment [4]; 2.17 µM in experiment [5]; 31.9 µM in experiment [6].

Consider `NC(CSC(c1ccccc1)(c1ccccc1)c1ccc2c(c1)OCO2)C(=O)O` (stereo not drawn), for which the GI50 in experiment [1] is 0.559 µM; in experiment [2] it was 2.33 µM; in experiment [3], 0.392 µM; in experiment [4], 0.365 µM; in experiment [5] it was 0.521 µM; in experiment [6] it was 0.597 µM. The TGI in experiment [1] was 75.9 µM; in experiment [2] it was 6.88 µM; in experiment [3] it was 24.6 µM; in experiment [4], 14.4 µM; in experiment [5] it was over 69.6 µM; in experiment [6], over 67.9 µM.

Turning to `CC(=O)[O][Hg][c]1c(N)c(C)cc(C)c1F`, the GI50 in experiment [1] was 2.22 µM; in experiment [2], 2.39 µM; in experiment [3], 1.6 µM; in experiment [4] it was 1.17 µM; in experiment [5] it was 2.03 µM; in experiment [6], 1.39 µM. In addition, the TGI in experiment [1] came out at 5.29 µM; in experiment [2], 7.14 µM; in experiment [3] it was 6.85 µM; in experiment [4] it was 2.64 µM; in experiment [5], 6.61 µM; in experiment [6] it was 4.47 µM.
